Read-outs that look alike come from different tables or passages of the source.
System: iCell cardiomyocytes (human iPSC-derived cardiomyocytes)
Experiment: Intracellular Ca2+ flux / beating parameters in iCell cardiomyocytes (FLIPR tetra), 90 min or 24 h
Format: cell-based
Conditions: Homo sapiens, Cardiomyocyte, 0.00 µM = 100.00; for activity at 0.1 µM: 0.10 µM
Protocol: Details on cardiomyocyte cell culture are described in detail elsewhere ([Grimm et al. 2015b]; [Sirenko et al. 2013a]). Briefly, tissue-culture treated 384 well plates were gelatinized with 25μL per well of 0.1% (w/v) gelatin in water for 2 h at 37°C and 5% CO2 . Individual vials of cells were thawed for 4 min in a water bath maintained at 37°C. Thawed cells were resuspended in 10ml plating medium containing 1:500 (vol/vol) penicillin/streptomycin solution at room temperature (RT). Live cell counts for each cell suspension were determined by trypan blue staining and cells were further diluted to provide final cell densities of 2×10^5 viable cells/ml. Thus, 5,000 cells suspended in 25μL media were transferred per well after the gelatin solution had been discarded. Cell culture plates were rested for 30 min at RT before they were incubated for 48 h at 37°C and 5% CO2 . Then, a media exchange with 30μL of fresh maintenance medium containing 1:500 (vol/vol) penicillin/streptomycin solution was performed, and cell media were subsequently changed every 48 h for 12 d. On the experiment day, the medium was completely exchanged with either 25μL (for Ca^2+ flux assay) or 40μL (for imaging) of fresh medium.
Responses of iCell®-cardiomyocytes to drugs and chemicals were evaluated using intracellular Ca^2+ flux measurements ([Grimm et al. 2015b]; [Sirenko et al. 2013b]). For experiments, 20 mM stock solutions of PCBs and PCB metabolites were prepared in DMSO ( 200× ). Chemical working solutions ( 5× ) were prepared using cardiomyocyte maintenance medium and contained 2.5% (vol/vol) DMSO. These chemical master plates were prepared to include all chemicals in concentration–response (0.05, 0.5, 5, 50, and 500μM ). Negative controls included media-only and vehicle control (i.e., 0.5% vol/vol DMSO in cell culture media) wells. Positive assay controls were consistent with previously published reports ([Grimm et al. 2018]) and included TAB ( 50μM ) as a cytotoxic control, and isoproterenol ( 0.1–10μM ), propranolol ( 0.1–5 μM ), cisapride ( 0.01–1μM ), and doxorubicin ( 0.1–5μM ) as chemicals associated with specific effects on beating and ion flux. Each test chemical was screened in triplicate for each concentration.
Experiments started with the addition of 25μL of prewarmed 2× concentrated calcium dye reagent to sample wells containing 25μL maintenance media. Microplates were then acclimated for 2 h at 37°C. Following equilibration, cardiomyocyte sample wells were treated simultaneously by the addition of 12.5μL of prewarmed 5× chemical solution to iCell®-cardiomyocytes using the automated liquid handler in the FLIPR tetra (Molecular Devices). Treated cell cultures were incubated for either 90 min or 24 h. After the conclusion of the treatment period, the Ca^2+ flux was measured for 100 s at a frequency of 8 Hz using the integrated fluorescence plate reader in the FLIPR tetra (Molecular Devices) using an emission wavelength range of λemission=515–575 nm ( λexcitation=470–495 nm ). Additional instrument settings included exposure time per read of 0.05s, a gain of 2000, an excitation intensity of 30%, and an internal temperature of 37°C.
Ca^2+ flux data were processed in R studio (version 1.0.136, with R version 3.3.2; R Development Core Team) as described elsewhere ([Blanchette et al. 2019]; [Burnett et al. 2019]). Calculated quantitative metrics included the means and coefficients of variation (CV) of the peak height, which can be indicative of cytotoxicity, inhibition, or stimulation of beating. Means of peak frequency, an indicator of positive or negative […], and CV of peak spacing, an indicator of irregular beating, were also derived from Ca^2+ flux traces. Finally, the mean ratio of the decay over rise time was calculated. Increases in the decay/rise time ratio are reflective of delayed repolarization and are a measure for QT prolongation. […]

[1] = 1.5 h, read-out: cm.amp.avg.90min
[2] = 1.5 h, read-out: cm.amp.cv.90min
[3] = 1.5 h, read-out: cm.decay.rise.90min
[4] = 1.5 h, read-out: cm.spacing.cv.90min
[5] = 24 h, read-out: cm.amp.avg.24hrs
[6] = 24 h, read-out: cm.amp.cv.24hrs
[7] = 24 h, read-out: cm.decay.rise.24hrs
[8] = 24 h, read-out: cm.spacing.cv.24hrs

SMILES: Oc1ccccc1-c1ccc(Cl)cc1 [2'-OH PCB3]
- activity at 0.01 µM [1]: 95.7%
- activity at 0.01 µM [2]: 112%
- activity at 0.01 µM (1.5 h, read-out: cm.bpm.90min): 102%
- activity at 0.01 µM [3]: 98.2%
- activity at 0.01 µM [4]: 143%
- activity at 0.1 µM [1]: 105%
- activity at 0.1 µM [2]: 96.5%
- activity at 0.1 µM (1.5 h, read-out: cm.bpm.90min): 102%
- activity at 0.1 µM [3]: 98.7%
- activity at 0.1 µM [4]: 110%
- activity at 1 µM [1]: 102%
- activity at 1 µM [2]: 116%
- activity at 1 µM (1.5 h, read-out: cm.bpm.90min): 104%
- activity at 1 µM [3]: 97.6%
- activity at 1 µM [4]: 106%
- activity at 10 µM [1]: 0%
- activity at 10 µM [2]: 0%
- activity at 10 µM (1.5 h, read-out: cm.bpm.90min): 0%
- activity at 10 µM [3]: 0%
- activity at 10 µM [4]: 0%
- activity at 100 µM [1]: 0%
- activity at 100 µM [2]: 0%
- activity at 100 µM (1.5 h, read-out: cm.bpm.90min): 0%
- activity at 100 µM [3]: 0%
- activity at 100 µM [4]: 0%
- activity at 0.01 µM [5]: 112%
- activity at 0.01 µM [6]: 138%
- activity at 0.01 µM (24 h, read-out: cm.bpm.24hrs): 118%
- activity at 0.01 µM [7]: 82.1%
- activity at 0.01 µM [8]: 120%
- activity at 0.1 µM [5]: 115%
- activity at 0.1 µM [6]: 126%
- activity at 0.1 µM (24 h, read-out: cm.bpm.24hrs): 116%
- activity at 0.1 µM [7]: 92.5%
- activity at 0.1 µM [8]: 111%
- activity at 1 µM [5]: 124%
- activity at 1 µM [6]: 94.2%
- activity at 1 µM (24 h, read-out: cm.bpm.24hrs): 95.5%
- activity at 1 µM [7]: 112%
- activity at 1 µM [8]: 106%
- activity at 10 µM [5]: 104%
- activity at 10 µM [6]: 140%
- activity at 10 µM (24 h, read-out: cm.bpm.24hrs): 121%
- activity at 10 µM [7]: 82.7%
- activity at 10 µM [8]: 111%
- activity at 100 µM [5]: 0%
- activity at 100 µM [6]: 0%
- activity at 100 µM (24 h, read-out: cm.bpm.24hrs): 0%
- activity at 100 µM [7]: 0%
- activity at 100 µM [8]: 0%

SMILES: O=C1C=CC(=O)C(c2ccc(Cl)cc2)=C1 [4-Cl-BQ, 2-(4-Chlorophenyl)benzo-2,5-quinone]
- activity at 0.01 µM [1]: 91.7%
- activity at 0.01 µM [2]: 113%
- activity at 0.01 µM (1.5 h, read-out: cm.bpm.90min): 103%
- activity at 0.01 µM [3]: 99.5%
- activity at 0.01 µM [4]: 135%
- activity at 0.1 µM [1]: 92.1%
- activity at 0.1 µM [2]: 88.6%
- activity at 0.1 µM (1.5 h, read-out: cm.bpm.90min): 100%
- activity at 0.1 µM [3]: 96.6%
- activity at 0.1 µM [4]: 99.9%
- activity at 1 µM [1]: 92.1%
- activity at 1 µM [2]: 105%
- activity at 1 µM (1.5 h, read-out: cm.bpm.90min): 95.3%
- activity at 1 µM [3]: 107%
- activity at 1 µM [4]: 104%
- activity at 10 µM [1]: 101%
- activity at 10 µM [2]: 118%
- activity at 10 µM (1.5 h, read-out: cm.bpm.90min): 124%
- activity at 10 µM [3]: 104%
- activity at 10 µM [4]: 225%
- activity at 100 µM [1]: 0%
- activity at 100 µM [2]: 0%
- activity at 100 µM (1.5 h, read-out: cm.bpm.90min): 0%
- activity at 100 µM [3]: 0%
- activity at 100 µM [4]: 0%
- activity at 0.01 µM [5]: 112%
- activity at 0.01 µM [6]: 125%
- activity at 0.01 µM (24 h, read-out: cm.bpm.24hrs): 101%
- activity at 0.01 µM [7]: 85.3%
- activity at 0.01 µM [8]: 104%
- activity at 0.1 µM [5]: 97.3%
- activity at 0.1 µM [6]: 130%
- activity at 0.1 µM (24 h, read-out: cm.bpm.24hrs): 100%
- activity at 0.1 µM [7]: 96.8%
- activity at 0.1 µM [8]: 92.5%
- activity at 1 µM [5]: 105%
- activity at 1 µM [6]: 96.8%
- activity at 1 µM (24 h, read-out: cm.bpm.24hrs): 93.6%
- activity at 1 µM [7]: 103%
- activity at 1 µM [8]: 98.4%
- activity at 10 µM [5]: 45.5%
- activity at 10 µM [6]: 56.6%
- activity at 10 µM (24 h, read-out: cm.bpm.24hrs): 64.9%
- activity at 10 µM [7]: 72.1%
- activity at 10 µM [8]: 63.9%
- activity at 100 µM [5]: 0%
- activity at 100 µM [6]: 0%
- activity at 100 µM (24 h, read-out: cm.bpm.24hrs): 0%
- activity at 100 µM [7]: 0%
- activity at 100 µM [8]: 0%
